Reference: patent publication US20240239762A1, “NOVEL HETEROCYCLIC COMPOUNDS” (FLORATEK PHARMA S.A., priority 2021, published 2024)
“Also recorded” adds a separate entry of the source. Like-named read-outs stand apart in the source and are kept apart here.

Experiments:
C. elegans [1] = experiment: Lifespan assay on the Automated Lifespan Machine; type: in vivo, Caenorhabditis elegans; conditions: 50 μM; for Max life span: 95th percentile of lifespans in each group; for Mean life span: calculated from the area under the survival curve; for Median life span: day 1 set at day 1 of adulthood, time at which 50% of the worms have died
Description: To prevent chemical modification or metabolism of the test article by the food bacteria, worms were fed on a lawn of UV-killed bacteria (UV-i bacteria). An overnight culture of E. coli strain WP-2 was pelleted, washed, filtered, and irradiated. A suspension of UV-i bacteria was spotted on NGM agar containing Streptomycin to inhibit the growth of contaminating bacteria. The quantity and distribution of food bacteria were calibrated to ensure adequate access to food for the duration of assay while maintaining visibility of the worms.
Test compounds were soluble in 100% DMSO. The compounds were dissolved in a working solution and then combined directly with the food bacteria before seeding on agar plates. The food spots are dried slowly, allowing the compound to diffuse into the food bacteria and the agar for at least 24 hours before worms were introduced.
The ALM used by InVivoBiosystems is based on the Caenorhabditis elegans lifespan machine published by Stroustrup et. Al [Stroustrup, N. et al. The Caenorhabditis elegans Lifespan Machine. Nat Methods 10, 665-670 (2013)], with proprietary modifications to improve temperature stability and image acquisition. The scanner unit consisted of a modified EPSON V850 and images were processed and analyzed using the ALM software. The machine time-of-death calls are trained and validated using the “storyboarding” feature of the ALM software.
The lifespan assay was designed and performed according to published and validated methods [Amrit, F. R. G., Ratnappan, R., Keith, S. A. & Ghazi, A. The C. elegans lifespan assay toolkit. Methods 68, 465-475 (2014).] using a modified version of the Automated Lifespan Machine 7.
The lifespan assay was initiated by expanding all replicate groups to more than 1000 worms, then synchronizing by bleaching and allowing larval worms to hatch and arrest. To suppress progeny, worms were transferred to media containing 5-Fluorodeoxyuridine (FUdR) within 54-60 hours post-plating. Worms were inspected 24 and 48 hours after this transfer to confirm infertility. Finally, the worms were inspected for general health and morphology before transferring to scanner plates. The scanner plates were transferred to scanners for automated imaging on day 3 of adulthood.
Plates were immobilized inverted on the bed of an Automated Lifespan Machine which scanned two images per hour of the plates continuously for the next 40 days.
Time of death calls exported from the ALM software was analyzed and plotted using the Lifelines software package developed by Cam Davidson-Pilon et. al [Davidson-Pilon, C et. al. Lifelines survival analysis package. CamDavidsonPilon/lifelines: vo. 25-9.]. Additional analysis was performed using the OASIS2 analysis software6.
Worm movement was tracked from the images acquired by the ALM during the lifespan assay. Worm size and movement features were extracted and analyzed using custom software.

C. elegans [2] = experiment: Global gene expression by mRNA sequencing (RNA-Seq), GO enrichment and pathway mapping; type: in vivo, Caenorhabditis elegans
Description: To identify potential mechanisms of action through which SND305 and SND306 could affect aging, global gene expression was analyzed by mRNA sequencing (RNA-Seq). Worms were treated on the same media and conditions as the lifespan assay, then young worms were harvested at adult day 3 and aged worms harvested at adult day 10. Three replicates of treated samples were analyzed.
More than 300 day 1 adult worms per replicate were harvested, cleaned by filtration, and frozen at −80° in Trizol. To extract RNA, samples were thawed, vigorously vortexed, and processed using the Direct-zol RNA Miniprep Kit (Zymo Research). All samples exceeded the threshold for RNA quantity and quality.
The total RNA was then enriched for poly-mRNA using oligo(dT) paramagnetic beads. DNA libraries were then constructed from this input mRNA using the NEBNext Ultra™ II RNA Library Prep Kit. This created a ready-to-sequence dsDNA library that retained the strand-specific information in the original mRNA. These libraries were then further tested by the Qubit for concentration and the Agilent 2100 for library size distribution and quality. In order to properly pool the libraries and load them onto sequencing lanes to ensure the correct number of reads per sample, an even more precise quantification of the library was done via qPCR, and the samples were loaded onto the NovaSeq 6000 platform for a paired-end sequencing run of 150 bp for each end (PE150). The loading concentrations were designed to obtain at least 6.0 Gb (which is the number of billion bases of raw data, determined by the number of reads multiplied by the length of each read).
The raw data set was analyzed for • 1. The distribution of base quality along the length of the sequencing read • 2. The distribution of error rate along the length of the sequencing read • 3. The distribution of A/T/G/C bases along the length of the sequencing read • 4. The distribution of raw data filtering results based on the following three criteria: • a. Removing reads containing adapter sequence • b. Removing reads with N>10% (where N means “base cannot be determined”) • c. Removing reads with a low quality (Qscore<=5) for 50% or more of its total bases
Multidimensional scaling makes it possible to see strong patterns in large, complex data sets by reducing the data to two or three dimensions. When the data is plotted along these few dimensions, the samples form clustered based on their overall similarity to one another. The distance between samples is calculated based on the Biological Coefficient of Variation (BCV). Greater differences were observed between all conditions at Day 10 than at Day 3. To identify genes that are differentially expressed upon treatment with SND305 and SND306, the gene counts for each of the treated samples were compared against the control.
GO enrichment analysis is a common approach that identifies functional groups form lists of differentially expressed genes. Genes are annotated based on functional categories (gene ontologies) that are further categorized by biological process (BP), molecular function (MF), or cellular compartment (CC). A comparison is made between the likelihood of seeing genes in that category (ontology) being enriched or depleted in the list of DEGs when compared to a random selection of genes.
In order to identify which cellular pathways were most likely modulated by treatment with SND305 and SND306 and gain insight into how these pathways might contribute to mechanism of action (MoA), the genes differentially expressed after SND305 and SND306 treatment were mapped to core established longevity pathways from the literature. The mapping was then expanded to intersecting and supporting pathways. This placed the transcriptomic data within the context of well-characterized biological pathways, particularly several related to longevity.

C. elegans strain SD1347 = experiment: Age-related sarcopenia model: muscle mitochondrial fragmentation scoring; type: in vivo, Caenorhabditis elegans; conditions: day 11; 50 μM; ANOVA and multiple comparisons (FIG. 8)
Description: C. elegans strain SD1347 confirmed to have nuclear and mitochondrial GFP labeling in muscle was obtained from the Caenorhabditis Genetic Center.
Synchronized worm populations were administered a single concentration of 50 μM SND compounds by exposure on NGM plates starting the day before adulthood. All plates contained 50 μM 5-Fluorodeoxyuridine (FUdR) to prevent progeny production. Animals were immobilized using NemaGel (InVivo Biosystems) and imaged within 1 hour. Worms were alive throughout imaging. For each worm imaged, one head and one tail image was collected from regions excluding the pharynx, vulva, and tip of the tail. For day 1, a single session imaged a minimum of 5 worms per condition.
For aged worms, two total biological replicates were collected, each with 5-6 worms imaged per condition. Images were obtained using a Nikon Eclipse Ti2 spinning disk confocal microscope. After processing, each image was scored blindly in replicate groups by six viewers.
Stock solutions of SND compounds were prepared by dissolving to 50 mM in DMSO. Working solutions were prepared such that the final concentration of compound in the total volume of the solid media would be 50 μM, and the DMSO concentration would not exceed 0.1% (e.g. 10 μl in a 10 mL dish). […]

C. elegans [3] = conditions: cited from earlier work
[4] = aged (Day 10) worms, weighted by the p-value

SMILES | Max life span (C. elegans [1]) | Mean life span (C. elegans [1]) | Median life span (C. elegans [1]) | Effect on lifespan (C. elegans [1]) | Noteable GO categories enriched or depleted, Down (C. elegans [2]; Day 3) | Noteable GO categories enriched or depleted, Up (C. elegans [2]; Day 3) | Noteable GO categories enriched or depleted, Down (C. elegans [2]; Day 10) | Noteable GO categories enriched or depleted, Up (C. elegans [2]; Day 10) | Expression of genes specifically involved in axon regeneration (C. elegans [2]; Day 10 (FIGS. 4 and 5)) | Differentially expressed genes above threshold (volcano plot) (C. elegans [2]; Day 10, P-value<0.05 and fold change >2.0) | CTSB expression, fold down- (C. elegans [2]; [4]) | CTSD expression, fold down- (C. elegans [2]; [4]) | LAMP expression, fold up- (C. elegans [2]; [4]) | Expression of cathepsin orthologs cpr-1, cpr-4, cpr-9 (C. elegans [2]; day 3 (FIGS. 2 and 3)) | Insulin Signaling (IIS) Pathway components daf-18, akt-1, and daf-16 (C. elegans [2]; day 3 (FIGS. 2 and 3)) | Sum of the mitochondrial fragmentation scores per image vs control (C. elegans strain SD1347) | Accumulation of dysfunctional mitochondria with age (C. elegans [3]) | Effect on lifespan (C. elegans [3])
CO[C@H]1C[C@@H]2CC[C@@H](C)[C@@](O)(O2)C(=O)C(=O)N2CCCC[C@H]2C(=O)O[C@H]([C@H](C)C[C@@H]2CC[C@@H](O)[C@H](OC)C2)CC(=O)[C@H](C)/C=C(\C)[C@@H](O)[C@@H](OC)C(=O)[C@H](C)C[C@H](C)/C=C/C=C/C=C/1C [Rapamycin, reference compound] | 33.0 days | 26.2 days | 26.5 days |  |  |  |  |  |  |  |  |  |  |  |  |  |  | 
CC(C)NC(=O)Oc1ccc2c(c1)COc1cc(OC(=O)NC(C)C)ccc1-2 [SND306] | 34.6 days | 25.8 days | 26.6 days | increased the life span with statistical significance | hydrolase activity | structural constituent of cuticle (e.g. collagen), immune response, lipid | extracellular region, immune response, response to other organism | enrichment in genes involved with axon development and regeneration; also recorded: nervous system development, neurogenesis, regulation of gene expression | upregulation | a large number of DEGs above threshold | > 5 fold | > 5 fold | > 5 fold | upregulated | slight modulation | significantly less fragmentation than the control |  | 
O=c1oc2cc(O)ccc2c2ccc(O)cc12 [Urolithin A, urolithin A] |  |  |  |  |  |  |  |  |  |  |  |  |  |  |  | did not reach statistical significance | prevented the accumulation of dysfunctional mitochondria with age | extended lifespan
